Drawing on patent US20240360157A1, “TYK2 INHIBITORS” (BIOGEN MA INC., priority 2021, published 2024), this text covers IC50 for 27 molecules.

Common to all, as to type: biochemical
Assay [1] deals with human TYK2 catalytic kinase (JH1) domain (Homo sapiens (Human), UniProt P29597). The assay is described as follows: ADP-Glo Kinase Assay, recombinant TYK2 catalytic kinase (JH1) domain. To be noted: recombinant JH1 domain 2 nM, 10 μM ATP, JAK3-974 peptide, mean, read-out: TYK2 biochem IC50 (nM) Mean. The method in brief:
(§1)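 Luminescent ADP read-out after residual ATP depletion, 100 min reaction. Kinase domain concentrations were 4 nM (JAK1), 0.2 nM (JAK2), 0.3 nM (JAK3) and 2 nM (TYK2), each with 50 μM peptide. IC50 values came from 4-parameter logistic fits over 11 points, 3-fold steps, top 10 μM or 1 μM.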
A general note: In ADP-Glo the light output rises with the ADP produced.

For assay [2], the target named is human JAK2 catalytic kinase (JH1) domain (Homo sapiens (Human), UniProt O60674). The assay can be described thus: ADP-Glo Kinase Assay, recombinant JAK2 catalytic kinase (JH1) domain. As to conditions: recombinant JH1 domain 0.2 nM, 15 μM ATP, JAK3-974 peptide, mean, read-out: JAK2 biochem IC50 (nM) Mean. A digest of the protocol:
as §1

Assay [3] has as its target human JAK3 catalytic kinase (JH1) domain (Homo sapiens (Human), UniProt P52333). The assay can be described thus: ADP-Glo Kinase Assay, recombinant JAK3 catalytic kinase (JH1) domain. To be noted: recombinant JH1 domain 0.3 nM, 4 μM ATP, JAK3-974 peptide, mean, read-out: JAK3 biochem IC50 (nM) Mean. A digest of the protocol: as §1
The target in assay [4] is human JAK1 catalytic kinase (JH1) domain (Homo sapiens (Human), UniProt P23458). The assay is described as follows: ADP-Glo Kinase Assay, recombinant JAK1 catalytic kinase (JH1) domain. To be noted: recombinant JH1 domain 4 nM, 35 μM ATP, JAK3-342 peptide, mean, read-out: JAK1 biochem IC50 (nM) Mean. A digest of the protocol: as §1
human JAK1 catalytic kinase (JH1) domain, sequence (P23458 875-1153): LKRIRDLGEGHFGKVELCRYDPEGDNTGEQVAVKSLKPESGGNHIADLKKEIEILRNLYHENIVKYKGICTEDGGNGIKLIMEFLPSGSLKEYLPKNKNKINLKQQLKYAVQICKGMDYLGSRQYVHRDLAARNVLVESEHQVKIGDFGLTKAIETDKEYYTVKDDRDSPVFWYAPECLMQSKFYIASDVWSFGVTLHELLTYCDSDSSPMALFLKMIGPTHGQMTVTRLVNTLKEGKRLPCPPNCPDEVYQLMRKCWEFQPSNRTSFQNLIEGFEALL

As usually defined, the IC50 is the concentration at which inhibition is half-maximal.

human JAK2 catalytic kinase (JH1) domain, sequence (O60674 849-1124): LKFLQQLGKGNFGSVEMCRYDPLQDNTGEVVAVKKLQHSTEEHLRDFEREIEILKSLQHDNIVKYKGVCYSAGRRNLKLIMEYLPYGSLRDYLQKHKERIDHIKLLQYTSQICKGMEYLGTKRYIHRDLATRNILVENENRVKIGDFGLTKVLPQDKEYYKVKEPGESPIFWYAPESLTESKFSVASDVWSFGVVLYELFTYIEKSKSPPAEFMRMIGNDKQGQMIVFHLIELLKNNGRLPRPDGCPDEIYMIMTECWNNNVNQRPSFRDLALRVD
human TYK2 catalytic kinase (JH1) domain, sequence (P29597 897-1176): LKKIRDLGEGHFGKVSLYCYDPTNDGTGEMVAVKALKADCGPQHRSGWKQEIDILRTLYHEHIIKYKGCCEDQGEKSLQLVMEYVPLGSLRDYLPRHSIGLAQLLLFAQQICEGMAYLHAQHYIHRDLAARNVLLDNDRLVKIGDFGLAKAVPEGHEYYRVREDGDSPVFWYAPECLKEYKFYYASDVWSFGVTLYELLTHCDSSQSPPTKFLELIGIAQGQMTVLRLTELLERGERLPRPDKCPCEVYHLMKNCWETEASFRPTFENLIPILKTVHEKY
human JAK3 catalytic kinase (JH1) domain, sequence (P52333 822-1111): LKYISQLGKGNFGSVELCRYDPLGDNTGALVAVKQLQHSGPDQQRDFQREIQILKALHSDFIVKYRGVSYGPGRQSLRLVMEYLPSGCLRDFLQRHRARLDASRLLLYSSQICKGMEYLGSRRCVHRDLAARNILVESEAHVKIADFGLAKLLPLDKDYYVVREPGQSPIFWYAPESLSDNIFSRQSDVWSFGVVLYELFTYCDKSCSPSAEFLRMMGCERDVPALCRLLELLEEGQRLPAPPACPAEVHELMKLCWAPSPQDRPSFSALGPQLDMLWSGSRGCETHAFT

Turning to `N#Cc1cccc(-c2cc3c(N4CC5CCC(C4)N5C(=O)C4CC4)ncnn3c2)c1` [Example 176], the IC50 in assay [1] is 830 nM; in assay [2] it was 10000 nM; in assay [3] it was 9890 nM; in assay [4], 3560 nM.
On the same counts, the results for `O=C(C1CC1)N1C2CCC1CN(c1ncnn3cc(-c4ccccc4)cc13)C2` [Example 177] are 300 nM, 10000 nM, 4670 nM and 1230 nM.
`COc1ccc(-c2cc3c(N4CC5CCC(C4)N5C(=O)C4CC4)ncnn3c2)cn1` [Example 178]: the IC50 in assay [1] was 719 nM; in assay [2], 10000 nM; in assay [3], 6270 nM; in assay [4] it was 2020 nM.
As for `O=C(C1CC1)N1C2CCC1CN(c1ncnn3cc(-c4ccc(Cl)nc4)cc13)C2` [Example 179], the IC50 turned out to be 684 nM in assay [1], 10000 nM in assay [2], 9270 nM in assay [3] and 5400 nM in assay [4].
On the same counts, the results for `O=C(C1CC1)N1C2CCC1CN(c1ncnn3cc(-c4ccnc(Cl)c4)cc13)C2` [Example 180] are 547 nM, 10000 nM, 10000 nM and 4750 nM.
On the same counts, the results for `O=C(C1CC1)N1C2CCC1CN(c1ncnn3cc(-c4ccncc4)cc13)C2` [Example 181] are 229 nM, 7860 nM, 5520 nM and 1040 nM.
On the same counts, the results for `O=C(C1CC1)N1C2CCC1CN(c1ncnn3cc(-c4ccccc4F)cc13)C2` [Example 182] are 704 nM, 10000 nM, 8600 nM and 3660 nM.
Regarding `O=C(C1CC1)N1C2CCC1CN(c1ncnn3cc(-c4cccnc4)cc13)C2` [Example 183], the IC50 in assay [1] was 557 nM; in assay [2], 10000 nM; in assay [3] it was 8640 nM; in assay [4], 3290 nM.
For `O=C(C1CC1)N1C2CCC1CN(c1ncnn3cc(-c4ccc5nncn5c4)cc13)C2` [Example 184] the same measures were 230 nM, 7480 nM, 6270 nM and 2340 nM.
On the same counts, the results for `COc1ccc(-c2cc3c(N4CC5CCC(C4)N5C(=O)C4CC4)ncnn3c2)cc1C#N` [Example 185] are 398 nM, 10000 nM, 10000 nM and 2540 nM.
On the same counts, the results for `Cn1cc(-c2cc3c(N4CC5CCC(C4)N5C(=O)C4CC4)ncnn3c2)nn1` [Example 186, cyclopropyl(3-(6-(1-methyl-1H-1,2,3-triazol-4-yl)pyrrolo[2,1-f][1,2,4]triazin-4-yl)-3,8-diazabicyclo[3.2.1]octan-8-yl)methanone] are 845 nM, 9850 nM, at least 10000 nM and at least 10000 nM.
`Cn1cc(-c2cc3c(N4CC5CCC(C4)N5S(=O)(=O)C4CC4)ncnn3c2)cn1` [Example 187, 4-(8-(cyclopropylsulfonyl)-3,8-diazabicyclo[3.2.1]octan-3-yl)-6-(1-methyl-1H-pyrazol-4-yl)pyrrolo[2,1-f][1,2,4]triazine]: the IC50 came to 643 nM in assay [1], 5410 nM in assay [2], 9430 nM in assay [3] and 9660 nM in assay [4].
For `O=S(=O)(C1CC1)N1C2CCC1CN(c1ncnn3cc(-c4cnn(C(F)F)c4)cc13)C2` [Example 188, 4-(8-(cyclopropylsulfonyl)-3,8-diazabicyclo[3.2.1]octan-3-yl)-6-(1-(difluoromethyl)-1H-pyrazol-4-yl)pyrrolo[2,1-f][1,2,4]triazine] the same measures were 615 nM, 5890 nM, 9390 nM and 9740 nM.
On the same counts, the results for `Cn1cc(-c2cc3c(N4CC5CCC(C4)N5S(=O)(=O)C4CC4)ccnn3c2)cn1` [Example 189, 4-(8-(cyclopropylsulfonyl)-3,8-diazabicyclo[3.2.1]octan-3-yl)-6-(1-methyl-1H-pyrazol-4-yl)pyrrolo[1,2-b]pyridazine] are 46.5 nM, 208 nM, 1020 nM and 1210 nM.
For `COc1cc(-c2cc3c(N4CC5CCC(C4)N5S(=O)(=O)C4CC4)ccnn3c2)ccn1` [Example 190] the same measures were 64.4 nM, 280 nM, 2750 nM and 324 nM.
For the molecule `Cn1cc(-c2cc3c(N4CC5CCC(C4)N5S(=O)(=O)C4CC4)ncnc3[nH]2)cn1` [Example 191], the IC50 turned out to be 102 nM in assay [1], 601 nM in assay [2], 650 nM in assay [3] and 1780 nM in assay [4].
On the same counts, the results for `COc1cc(-c2cc3c(N4CC5CCC(C4)N5S(=O)(=O)C4CC4)ncnc3[nH]2)ccn1` [Example 192] are 298 nM, 3060 nM, 10000 nM and 1860 nM.
In the case of `Cn1cc(-c2cc3c(N4CC5CCC(C4)N5S(=O)(=O)C4CC4)ccnc3[nH]2)cn1` [Example 193], the IC50 in assay [1] came out at 10.1 nM; in assay [2] it was 36 nM; in assay [3], 199 nM; in assay [4], 200 nM.
For `COc1cc(-c2cc3c(N4CC5CCC(C4)N5S(=O)(=O)C4CC4)ccnc3[nH]2)ccn1` [Example 194] the same measures were 21 nM, 80 nM, 612 nM and 116 nM.
For `Cn1cc(-c2nc3c(N4CC5CCC(C4)N5S(=O)(=O)C4CC4)ccnc3[nH]2)cn1` [Example 195] the same measures were 20.6 nM, 38 nM, 306 nM and 194 nM.
On the same counts, the results for `COc1cc(-c2nc3c(N4CC5CCC(C4)N5S(=O)(=O)C4CC4)ccnc3[nH]2)ccn1` [Example 196] are 66.3 nM, 168 nM, 1000 nM and 216 nM.
For the molecule `Cn1cc(-c2cc3c(N4CC5CCC(C4)N5S(=O)(=O)[C@H]4CC4(F)F)ccnn3c2)cn1` [Example 197, 4-(8-(((S)-2,2-difluorocyclopropyl)sulfonyl)-3,8-diazabicyclo[3.2.1]octan-3-yl)-6-(1-methyl-1H-pyrazol-4-yl)pyrrolo[1,2-b]pyridazine], the IC50 in assay [1] stood at 16.7 nM; in assay [2], 99 nM; in assay [3], 701 nM; in assay [4], 322 nM.
For `Cn1cc(-c2cc3c(N4CC5CCC(C4)N5S(=O)(=O)[C@@H]4CC4(F)F)ccnn3c2)cn1` [Example 198, 4-(8-(((R)-2,2-difluorocyclopropyl)sulfonyl)-3,8-diazabicyclo[3.2.1]octan-3-yl)-6-(1-methyl-1H-pyrazol-4-yl)pyrrolo[1,2-b]pyridazine] the same measures were 15.1 nM, 95 nM, 652 nM and 266 nM.
Turning to `Cn1cc(-c2nc3c(N4CC5CCC(C4)N5C(=O)C4CC4)ccnc3[nH]2)cn1` [Example 199, cyclopropyl(3-(2-(1-methyl-1H-pyrazol-4-yl)-3H-imidazo[4,5-b]pyridin-7-yl)-3,8-diazabicyclo[3.2.1]octan-8-yl)methanone], the half-maximal inhibitory concentration (IC50) in assay [1] amounted to 6.2 nM; in assay [2], 56 nM; in assay [3], 219 nM; in assay [4], 92 nM.
For `Cn1cc(-c2nc3c(N4CC5CCC(C4)N5C(=O)[C@@H]4C[C@H]4F)ccnc3[nH]2)cn1` [Example 200, ((1S,2R)-2-fluorocyclopropyl)(3-(2-(1-methyl-1H-pyrazol-4-yl)-3H-imidazo[4,5-b]pyridin-7-yl)-3,8-diazabicyclo[3.2.1]octan-8-yl)methanone], the IC50 in assay [1] turned out to be 0.4 nM; in assay [2], 6 nM; in assay [3], 78 nM; in assay [4] it was 9 nM.
On the same counts, the results for `Cn1cc(-c2nc3c(N4CC5CCC(C4)N5C(=O)[C@@H]4CC4(F)F)ccnc3[nH]2)cn1` [Example 201, ((S)-2,2-difluorocyclopropyl)(3-(2-(1-methyl-1H-pyrazol-4-yl)-3H-imidazo[4,5-b]pyridin-7-yl)-3,8-diazabicyclo[3.2.1]octan-8-yl)methanone] are 1.5 nM, 9 nM, 164 nM and 14 nM.
For `Cc1cc(-c2nc3c(N4CC5CCC(C4)N5C(=O)[C@@H]4C[C@H]4F)ccnc3[nH]2)ccn1` [Example 202, ((1S,2R)-2-fluorocyclopropyl)(3-(2-(2-methylpyridin-4-yl)-3H-imidazo[4,5-b]pyridin-7-yl)-3,8-diazabicyclo[3.2.1]octan-8-yl)methanone] the same measures were 2.5 nM, 14 nM, 199 nM and 5 nM.
